Consider 78 molecules from the METLIN SMRT retention time set (Domingo-Almenara et al. 2019).

The nature of the data set: gradient 5% acetonitrile 3 min, to 50% in 2 min, to 85% in 15 min, held 3 min, 100 µL/min. As to conditions: column: Zorbax Extend-C18 2.1 x 50 mm; eluents: water / acetonitrile, 0.1% formic acid. In a few lines: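 In both positive and negative ionization mode, a quadrupole time-of-flight mass spectrometer coupled to HPLC analyzed pure standards run in mixtures of ~100 molecules. The Zorbax Extend-C18 column (2.1 × 50 mm, 1.8 μm) was operated at 100 μL/min with water and acetonitrile, each containing 0.1% formic acid. The dead volume was 40 μL and the dwell volume 900 μL. Retention time came from adduct peaks that were computationally picked and individually inspected by hand.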
Consider `Cn1c(=O)c(N2CCC(NC(=O)Nc3cccc(Cl)c3)CC2)nc2ccccc21`, for which the RP-LC retention time worked out at 944 s.

The molecule `COc1ccc(-c2cc3nn(CC(=O)Nc4ccc(C)c(C)c4)c(=O)n3c(C)n2)cc1` gave an RP-LC retention time of 980 s.

With `Cc1ccc(Nc2c(-c3ccc(C(=O)O)cc3)nc3cnccn23)c(Br)c1`, the RP-LC retention time was 1080 s.

In the case of `Cc1ccc(Nc2c(-c3cccc(Br)c3)nc3ccc(Cl)cn23)cc1`, the RP-LC retention time was 1130 s.

In turn, `Cc1cc(NC(=O)C2CCN(C(=O)c3cc(-c4ccco4)on3)CC2)no1` came in with an RP-LC retention time of 712 s.

For the molecule `CCOc1cccc(-c2noc(Cn3nc(-c4cccc(OC)c4)ccc3=O)n2)c1`, the RP-LC retention time is 1090 s.

For the molecule `CSc1cccc(NC(=O)N2CCc3nc(-c4ccccc4)ncc3C2)c1`, the RP-LC retention time turned out to be 955 s.

Turning to `CC1(C)CC(=O)c2cn(-c3ccc(Cl)cc3)c(=O)c(C(=O)NCCN3CCOCC3)c2C1`, the RP-LC retention time turned out to be 592 s.

With `Cc1noc(C)c1-c1ccc(S(=O)(=O)Nc2ccc(S(N)(=O)=O)cc2)cc1`, the RP-LC retention time was 756 s.

Molecule `Cc1cc(C)c2c(N3CCCC3)nc(C(=O)Nc3ccc4c(c3)OCO4)nc2n1` had an RP-LC retention time of 656 s.

`CCOc1ccc(NC(=O)N2CCc3cn(CCOC)c4cccc(c34)C2)cc1` returned an RP-LC retention time of 898 s.

In turn, `COc1ccc(-c2noc(-c3cccn4c(=O)c5ccccc5nc34)n2)cc1OC` had an RP-LC retention time of 994 s.

Molecule `Cc1ccc(-c2nnc(-c3nc(NCCc4ccco4)c4ccccc4n3)o2)cc1` came in with an RP-LC retention time of 1030 s.

Consider `Cc1ccc(-c2csc3c(=O)n(Cc4ccccn4)cnc23)cc1`, for which the RP-LC retention time came to 889 s.

For `COc1cc(C(=O)Nc2nc(-c3ccc4c(c3)N(C)C(=O)CO4)cs2)cc(OC)c1OC`, the RP-LC retention time worked out at 860 s.

`CCOC(=O)C1CCN(c2cc3c(cc2NC(=O)c2ccco2)n(C)c(=O)n3C)CC1` displayed an RP-LC retention time of 904 s.

With `CCOC(=O)c1noc2ncnc(N3CCc4cc(OC)c(OC)cc4C3C)c12` (stereo not drawn), the RP-LC retention time is 1000 s.

For the molecule `CCCC(NC(=O)c1ccc(F)c(F)c1)C(=O)Nc1nc2ccccc2[nH]1` (stereo not drawn), the RP-LC retention time turned out to be 712 s.

Molecule `CC(C)CN1C(=O)c2cccn2CC1C(=O)NCC1CCCCC1` (stereo not drawn) had an RP-LC retention time of 828 s.

For `Cc1ccc(C)c(NC(=O)C2CCN(C(=O)C3Sc4ccccc4NC3=O)CC2)c1` (stereo not drawn), the RP-LC retention time came out at 760 s.

In turn, `Cc1ccc(NC(=O)C2CCN(S(=O)(=O)c3cc(C(=O)N4CCCC4)n(C)c3)CC2)nc1` registered an RP-LC retention time of 647 s.

Molecule `CC(NC(=O)C1CCCN(c2nccnc2Sc2ccccc2)C1)c1ccccc1` (stereo not drawn) yielded an RP-LC retention time of 1060 s.

`Cn1c(=O)n([C@@H]2CCN(C(=O)CCc3nc4ccccc4s3)C2)c2ncccc21` displayed an RP-LC retention time of 733 s.

In turn, `O=C(NCc1cc(F)cc(F)c1)C1CCCN(c2nc3ccsc3c(=O)n2Cc2ccccc2)C1` (stereo not drawn) had an RP-LC retention time of 1050 s.

`CC1(C(=O)NCc2ccc(F)cc2)CCN(C(=O)Nc2ccc(F)cc2)CC1` came in with an RP-LC retention time of 804 s.

In turn, `Cc1cc(C)c(-c2nnc(NC(=O)c3ccccc3Br)s2)c(C)c1` had an RP-LC retention time of 988 s.

Consider `O=C(NC1CC1)C1CCCN(C(=O)c2ccccc2)C1` (stereo not drawn), for which the RP-LC retention time was found to be 619 s.

`CC(C)(C)c1csc(-c2csc(S(=O)(=O)Nc3cccc(Cl)c3F)c2)n1` registered an RP-LC retention time of 1330 s.

The molecule `O=C(Cc1ccc(Cl)cc1)N1CCN(S(=O)(=O)c2cc3c4c(c2)CCC(=O)N4CCC3)CC1` returned an RP-LC retention time of 842 s.

For the molecule `Cc1cccc(Nc2nc(C)c(C(=O)N3CCN(c4ccccc4)CC3)s2)n1`, the RP-LC retention time is 884 s.

As to `O=S(=O)(c1cccc(-c2cn3cc(Cl)ccc3n2)c1)N1CCCC1`, the RP-LC retention time was determined as 805 s.

In turn, `CCOC(=O)C1=C(C)N(CC(=O)NCC2CCCO2)c2ncnn2C1c1ccccc1` (stereo not drawn) returned an RP-LC retention time of 747 s.

Molecule `CCOC(=O)c1nc(N2CCN(c3cccc(OC)c3)CC2)c2c(C)noc2n1` showed an RP-LC retention time of 960 s.

Consider `O=C(N[C@H]1C[C@@H]2C[C@H]1CN2C(=O)NCCc1ccccc1)c1ccccc1`, for which the RP-LC retention time was determined as 734 s.

`O=C(NCc1cccnc1)C1CCN(Cc2cc3ccccc3n2Cc2cccc(Cl)c2)CC1` showed an RP-LC retention time of 750 s.

For the molecule `CCOC(=O)C1CCN(C(=O)C2c3ccccc3C(=O)N3CCc4cc(OC)c(OC)cc4C23)CC1` (stereo not drawn), the RP-LC retention time came out at 766 s.

In turn, `CCN1CCN(c2nc3cc(C(=O)OC)ccc3c(=O)n2-c2ccc(F)c(Cl)c2)CC1` registered an RP-LC retention time of 655 s.

Molecule `CN1CCCn2nc(C3CCN(C(=O)CC(C)(C)C)CC3)cc2C1=O` showed an RP-LC retention time of 654 s.

Regarding `O=C(NCC1CCCO1)c1ccc(-c2cnc(Oc3ccccc3)nc2)cc1` (stereo not drawn), the RP-LC retention time was 779 s.

With `COc1cccc(C2CC(c3ccc(Cl)cc3)=NC3(CCN(C)CC3)N2)c1O` (stereo not drawn), the RP-LC retention time came out at 606 s.

Turning to `Cn1nccc1-c1cccc(-c2noc(C3(c4ccccc4)CC3)n2)c1`, the RP-LC retention time was 1150 s.

On to `CC(C)(C)NS(=O)(=O)c1cc(-c2nnc(-c3ccccc3)o2)ccc1F`, for which the RP-LC retention time stood at 985 s.

Molecule `C[C@H](N)Cc1cccc(C(F)(F)F)c1` displayed an RP-LC retention time of 655 s.

For the molecule `O=C(NC1CCN(c2cc(-c3ccccc3)[nH]n2)C1)c1cc(F)ccc1Cl` (stereo not drawn), the RP-LC retention time was 708 s.

As for `CCc1ccc(C(=O)Nc2nnc(SCc3nnc(-c4ccccc4C)o3)s2)cc1`, the RP-LC retention time is 1080 s.

`Cc1ccc(C)c(NC(=O)N2CCN(c3cnn4c(C)nnc4c3)CC2)c1` registered an RP-LC retention time of 629 s.

The molecule `CC1=C(c2ccccc2)S(=O)(=O)N=C1N1CCCN(C(=O)c2cccnc2)CC1` registered an RP-LC retention time of 664 s.

As to `Cc1oc2ccn(Cc3ccccc3F)c(=O)c2c1C(=O)NCc1ccccc1`, the RP-LC retention time was found to be 1070 s.

`CC1(C)Oc2ccc(C#N)cc2[C@@H](OC2=CC(=O)CC2)[C@@H]1O` returned an RP-LC retention time of 746 s.

With `Cc1nc(-c2csc(S(=O)(=O)N3CCC(C(=O)N4c5ccccc5CC4C)CC3)c2)no1` (stereo not drawn), the RP-LC retention time came out at 1050 s.

As for `COc1ccc(S(=O)(=O)N2CCCC(C(=O)Nc3ccc(Br)cc3)C2)cc1C` (stereo not drawn), the RP-LC retention time was found to be 1110 s.

With `Cc1nn2c(CNS(=O)(=O)c3ccc(C)c(Cl)c3)c(-c3ccccc3)nc2s1`, the RP-LC retention time was determined as 962 s.

In turn, `O=C(C1CCN(c2nn3c(=O)c4c(nc3s2)CCCC4)CC1)N1CCN(c2ncccn2)CC1` yielded an RP-LC retention time of 672 s.

Molecule `N#Cc1cccc(NC(=O)N2CCC(c3cc(N)on3)CC2)c1` had an RP-LC retention time of 660 s.

`COc1ccc2c(c1)C1(CCN(C(=O)Nc3ccc(OC)c(OC)c3)C1)C(=O)N2` (stereo not drawn) returned an RP-LC retention time of 671 s.

In turn, `COC(=O)c1ccc(Cn2cnc3nc4c(cc3c2=O)CCCC4)cc1` returned an RP-LC retention time of 767 s.

With `Cc1nn(CC(=O)NCCCN2CCCC2)c(=O)c2nc(-c3ccccc3)sc12`, the RP-LC retention time was determined as 620 s.

Take `Cc1cc(OC(C)C(=O)N2CCC3(O)CCCCC3C2)c2c3c(c(=O)oc2c1)CCCC3` (stereo not drawn): the RP-LC retention time was determined as 892 s.

`Cc1ccccc1NC(=O)N1CCCC1c1cc(C(C)C)on1` (stereo not drawn) displayed an RP-LC retention time of 890 s.

In turn, `CN(C)CCc1c[nH]c2ccc(CS(=O)(=O)N3CCCC3)cc12` showed an RP-LC retention time of 629 s.

In the case of `CCc1ccc2[nH]c3c(c(=O)c2c1)CN(CC(=O)NCc1ccccc1OC)CC3`, the RP-LC retention time turned out to be 621 s.

`Cc1ccc(-c2noc(-c3ccccc3S(=O)(=O)N3CCCCC3C)n2)cc1` (stereo not drawn) registered an RP-LC retention time of 1250 s.

With `Cc1nc(C)c(-c2nnc(NC(=O)NCc3cccs3)o2)s1`, the RP-LC retention time stood at 672 s.

For `CCc1noc(-c2ccnc(-n3cnc(C(=O)NC4CCCC4)c3)c2)n1`, the RP-LC retention time was found to be 839 s.

Molecule `Cc1cc(C)cc(S(=O)(=O)N2CCC(n3cnc4ccc(C)cc4c3=O)CC2)c1` showed an RP-LC retention time of 1010 s.

Molecule `Cc1ccc(CNC(=O)c2cn(C)c3c(c(C)nn3-c3ccc(F)cc3)c2=O)o1` returned an RP-LC retention time of 803 s.

`Cc1cccn2cc(-c3cccc(NS(=O)(=O)c4ccc(C(C)(C)C)cc4)c3)nc12` had an RP-LC retention time of 792 s.

`COc1ccccc1N1CCNCC1` had an RP-LC retention time of 627 s.

Turning to `CC(=O)Nc1ccc(C2=NN(C(C)=O)C(c3ccc4c(c3)OCO4)C2)cc1` (stereo not drawn), the RP-LC retention time worked out at 666 s.

Turning to `Cc1ccc(CNS(=O)(=O)c2cn(CC(C)C)c3ncccc23)cc1`, the RP-LC retention time was determined as 1050 s.

On to `Cc1cc(NS(=O)(=O)c2cc3n(c2)CCCNC3=O)ccc1F`, for which the RP-LC retention time was 671 s.

For `NC(=O)C1CCN(C(=O)NC2CC(=O)N(c3ccc(Cl)cc3)C2)CC1` (stereo not drawn), the RP-LC retention time was found to be 587 s.

`CCOC(=O)c1cccc(NC(=O)CN2C(=O)C(C)(C)c3ccccc32)c1` registered an RP-LC retention time of 900 s.

`CCOC(=O)C1=C(CN(CC)Cc2ccccc2)NC(=O)NC1c1ccc(F)cc1` (stereo not drawn): the RP-LC retention time stood at 696 s.

`Cc1ccc(-c2nnc(-c3cccc(S(=O)(=O)Nc4cccnc4)c3)o2)cc1` showed an RP-LC retention time of 775 s.

`Cc1csc(-c2cc(S(=O)(=O)NC(C)C)cn2CC(=O)N2CCCCC2)n1` showed an RP-LC retention time of 873 s.

`COC(=O)c1cnn(-c2ccc(C(=O)N3CCc4ccccc43)cc2)c1N`: the RP-LC retention time was 768 s.

Regarding `COc1ccc(N2CC(CNC(=O)C3CCCC3)OC2=O)cc1OC` (stereo not drawn), the RP-LC retention time is 649 s.
